Test results from patent US20250268826A1, “IONIZABLE LIPIDOID COMPOSITIONS AND THERAPEUTIC USES THEREOF” (Flagship Pioneering Innovations VII, LLC, priority 2023, published 2025).

Assay: LNP size and polydispersity index (PDI) by dynamic light scattering (DLS)
Format: physicochemical
Details: Table 3; LNP 50:10:38.5:1.5 mol %; hEPO mRNA; N:P 6

PDI | Compound
0.051 | CCCCCCCCC(CCCCCC)C(=O)OCCN(CCOC(=O)C(CCCCCC)CCCCCCCC)C(=O)CNCCO (stereo not shown) [Compound 305]

Same assay, conditions: Table 3; LNP lipid:DSPC:Cholesterol:DMG-PEG2k 50:10:38.5:1.5 mol %; hEPO mRNA; N:P 6

Size [nm] | Compound
53.3 | CCCCCCCCC(CCCCCC)C(=O)OCCN(CCOC(=O)C(CCCCCC)CCCCCCCC)C(=O)CNCCO (stereo not shown) [Compound 305]

Same assay, conditions: Table 5; LNP 50:10:38.5:1.5 mol %; hEPO mRNA; N:P 6

Compound | PDI
CCCCCCCCC(CCCCCC)C(=O)OCCN(CCOC(=O)C(CCCCCC)CCCCCCCC)C(=O)CNCCO (stereo not shown) [Compound 305] | 0.05
CCCCCCCC(CCCCCCC)C(=O)OCCN(CCOC(=O)C(CCCCCCC)CCCCCCC)C(=O)CN [Compound 604] | 0.102
CCCCCC(CCCCC)C(=O)OCCN(CCOC(=O)C(CCCCC)CCCCC)C(=O)C(C)N (stereo not shown) [Compound 608] | 0.13
CCCCCCCC(CCCCCCC)C(=O)OCCN(CCOC(=O)C(CCCCCCC)CCCCCCC)C(=O)C(C)N (stereo not shown) [Compound 611] | 0.24
CCCCCCCCCCC(CCCC)C(=O)OCCN(CCOC(=O)C(CCCC)CCCCCCCCCC)C(=O)C(C)N (stereo not shown) [Compound 612] | 0.403
CCCCCCCCCC(CCCCCCCCC)C(=O)OCCN(CCOC(=O)C(CCCCCCCCC)CCCCCCCCC)C(=O)C(C)N (stereo not shown) [Compound 614] | 0.443
CCCCCC(CCCCC)C(=O)OCCN(CCOC(=O)C(CCCCC)CCCCC)C(=O)C(N)Cc1ccccc1 (stereo not shown) [Compound 615] | 0.408

Next, values leading:

PDI | Compound
0.185 | CCCCCC(CCCCC)C(=O)OCCN(CCOC(=O)C(CCCCC)CCCCC)C(=O)CN [Compound 601]
0.337 | CCCCCCC(CCCC)C(=O)OCCN(CCOC(=O)C(CCCC)CCCCCC)C(=O)CN (stereo not shown) [Compound 602]
0.213 | CCCCCCCCC(CC)C(=O)OCCN(CCOC(=O)C(CC)CCCCCCCC)C(=O)CN (stereo not shown) [Compound 603]
0.457 | CCCCCCCCCCCCC(CC)C(=O)OCCN(CCOC(=O)C(CC)CCCCCCCCCCCC)C(=O)CN (stereo not shown) [Compound 606]
0.202 | CCCCCCCCC(CC)C(=O)OCCN(CCOC(=O)C(CC)CCCCCCCC)C(=O)C(C)N (stereo not shown) [Compound 610]
0.236 | CCCCCCCCCCCCC(CC)C(=O)OCCN(CCOC(=O)C(CC)CCCCCCCCCCCC)C(=O)C(C)N (stereo not shown) [Compound 613]

Same assay, conditions: Table 5; LNP 60:0:38.5:1.5 mol %; hEPO mRNA; N:P 6

PDI | Size [nm] | Compound
0.098 | 52.7 | CCCCCCCCC(CCCCCC)C(=O)OCCN(CCOC(=O)C(CCCCCC)CCCCCCCC)C(=O)CNCCO (stereo not shown) [Compound 305]
0.15 | 236.6 | CCCCCCCC(CCCCCCC)C(=O)OCCN(CCOC(=O)C(CCCCCCC)CCCCCCC)C(=O)CN [Compound 604]
0.244 | 55.6 | CCCCCCCC(CCCCCCC)C(=O)OCCN(CCOC(=O)C(CCCCCCC)CCCCCCC)C(=O)C(C)N (stereo not shown) [Compound 611]

Same assay, conditions: Table 5; LNP Lipid:DSPC:Cholesterol:DMG-PEG2k 50:10:38.5:1.5 mol %; hEPO mRNA; N:P 6

Compound | Size [nm]
CCCCCCCCC(CCCCCC)C(=O)OCCN(CCOC(=O)C(CCCCCC)CCCCCCCC)C(=O)CNCCO (stereo not shown) [Compound 305] | 59.3
CCCCCCCC(CCCCCCC)C(=O)OCCN(CCOC(=O)C(CCCCCCC)CCCCCCC)C(=O)CN [Compound 604] | 208.5
CCCCCCCCCC(CCCCCCCCC)C(=O)OCCN(CCOC(=O)C(CCCCCCCCC)CCCCCCCCC)C(=O)CN [Compound 607] | 68.9
CCCCCC(CCCCC)C(=O)OCCN(CCOC(=O)C(CCCCC)CCCCC)C(=O)C(C)N (stereo not shown) [Compound 608] | 77.1
CCCCCCC(CCCC)C(=O)OCCN(CCOC(=O)C(CCCC)CCCCCC)C(=O)C(C)N (stereo not shown) [Compound 609] | 98
CCCCCCCC(CCCCCCC)C(=O)OCCN(CCOC(=O)C(CCCCCCC)CCCCCCC)C(=O)C(C)N (stereo not shown) [Compound 611] | 155.4
CCCCCCCCCCC(CCCC)C(=O)OCCN(CCOC(=O)C(CCCC)CCCCCCCCCC)C(=O)C(C)N (stereo not shown) [Compound 612] | 69.9
CCCCCCCCCC(CCCCCCCCC)C(=O)OCCN(CCOC(=O)C(CCCCCCCCC)CCCCCCCCC)C(=O)C(C)N (stereo not shown) [Compound 614] | 79.1
CCCCCC(CCCCC)C(=O)OCCN(CCOC(=O)C(CCCCC)CCCCC)C(=O)C(N)Cc1ccccc1 (stereo not shown) [Compound 615] | 104.2

Results, then the compound that gave them:

Size [nm] | Compound
83.8 | CCCCCC(CCCCC)C(=O)OCCN(CCOC(=O)C(CCCCC)CCCCC)C(=O)CN [Compound 601]
84.8 | CCCCCCC(CCCC)C(=O)OCCN(CCOC(=O)C(CCCC)CCCCCC)C(=O)CN (stereo not shown) [Compound 602]
71.7 | CCCCCCCCC(CC)C(=O)OCCN(CCOC(=O)C(CC)CCCCCCCC)C(=O)CN (stereo not shown) [Compound 603]
57.2 | CCCCCCCCCCCCC(CC)C(=O)OCCN(CCOC(=O)C(CC)CCCCCCCCCCCC)C(=O)CN (stereo not shown) [Compound 606]
77.3 | CCCCCCCCC(CC)C(=O)OCCN(CCOC(=O)C(CC)CCCCCCCC)C(=O)C(C)N (stereo not shown) [Compound 610]
53.7 | CCCCCCCCCCCCC(CC)C(=O)OCCN(CCOC(=O)C(CC)CCCCCCCCCCCC)C(=O)C(C)N (stereo not shown) [Compound 613]

Assay: LNP Zeta potential measured using a Zetasizer (Malvern)
Format: physicochemical
Details: Table 5; LNP 50:10:38.5:1.5 mol %; hEPO mRNA; N:P 6

Compound | Zeta potential [mV]
CCCCCCCCC(CCCCCC)C(=O)OCCN(CCOC(=O)C(CCCCCC)CCCCCCCC)C(=O)CNCCO (stereo not shown) [Compound 305] | −0.5189
CCCCCCCC(CCCCCCC)C(=O)OCCN(CCOC(=O)C(CCCCCCC)CCCCCCC)C(=O)CN [Compound 604] | −7.347
CCCCCCCCCC(CCCCCCCCC)C(=O)OCCN(CCOC(=O)C(CCCCCCCCC)CCCCCCCCC)C(=O)CN [Compound 607] | −12.44
CCCCCC(CCCCC)C(=O)OCCN(CCOC(=O)C(CCCCC)CCCCC)C(=O)C(C)N (stereo not shown) [Compound 608] | −4.462
CCCCCCC(CCCC)C(=O)OCCN(CCOC(=O)C(CCCC)CCCCCC)C(=O)C(C)N (stereo not shown) [Compound 609] | −4.452
CCCCCCCC(CCCCCCC)C(=O)OCCN(CCOC(=O)C(CCCCCCC)CCCCCCC)C(=O)C(C)N (stereo not shown) [Compound 611] | −5.841
CCCCCCCCCCC(CCCC)C(=O)OCCN(CCOC(=O)C(CCCC)CCCCCCCCCC)C(=O)C(C)N (stereo not shown) [Compound 612] | −3.371
CCCCCCCCCC(CCCCCCCCC)C(=O)OCCN(CCOC(=O)C(CCCCCCCCC)CCCCCCCCC)C(=O)C(C)N (stereo not shown) [Compound 614] | −8.485
CCCCCC(CCCCC)C(=O)OCCN(CCOC(=O)C(CCCCC)CCCCC)C(=O)C(N)Cc1ccccc1 (stereo not shown) [Compound 615] | −11.83

More lines, now with the values ahead:

Zeta potential [mV] | Compound
−4.878 | CCCCCC(CCCCC)C(=O)OCCN(CCOC(=O)C(CCCCC)CCCCC)C(=O)CN [Compound 601]
−5.94 | CCCCCCC(CCCC)C(=O)OCCN(CCOC(=O)C(CCCC)CCCCCC)C(=O)CN (stereo not shown) [Compound 602]
−3.116 | CCCCCCCCC(CC)C(=O)OCCN(CCOC(=O)C(CC)CCCCCCCC)C(=O)CN (stereo not shown) [Compound 603]
−2.662 | CCCCCCCCCCCCC(CC)C(=O)OCCN(CCOC(=O)C(CC)CCCCCCCCCCCC)C(=O)CN (stereo not shown) [Compound 606]
−1.535 | CCCCCCCCC(CC)C(=O)OCCN(CCOC(=O)C(CC)CCCCCCCC)C(=O)C(C)N (stereo not shown) [Compound 610]
−6.511 | CCCCCCCCCCCCC(CC)C(=O)OCCN(CCOC(=O)C(CC)CCCCCCCCCCCC)C(=O)C(C)N (stereo not shown) [Compound 613]

Same assay, conditions: Table 5; LNP 60:0:38.5:1.5 mol %; hEPO mRNA; N:P 6

Zeta potential [mV] | Compound
−2.027 | CCCCCCCCC(CCCCCC)C(=O)OCCN(CCOC(=O)C(CCCCCC)CCCCCCCC)C(=O)CNCCO (stereo not shown) [Compound 305]
−3.753 | CCCCCCCC(CCCCCCC)C(=O)OCCN(CCOC(=O)C(CCCCCCC)CCCCCCC)C(=O)CN [Compound 604]
−5.555 | CCCCCCCC(CCCCCCC)C(=O)OCCN(CCOC(=O)C(CCCCCCC)CCCCCCC)C(=O)C(C)N (stereo not shown) [Compound 611]

Assay: Encapsulation efficiency (EE %) by fluorescence based Ribogreen assay
Format: physicochemical
Details: Table 3; LNP 50:10:38.5:1.5 mol %; hEPO mRNA; N:P 6

Encapsulation Efficiency % [%] | Compound
99.3 | CCCCCCCCC(CCCCCC)C(=O)OCCN(CCOC(=O)C(CCCCCC)CCCCCCCC)C(=O)CNCCO (stereo not shown) [Compound 305]

Same assay, conditions: Table 5; LNP 50:10:38.5:1.5 mol %; hEPO mRNA; N:P 6

Compound | Encapsulation Efficiency % [%]
CCCCCCCCC(CCCCCC)C(=O)OCCN(CCOC(=O)C(CCCCCC)CCCCCCCC)C(=O)CNCCO (stereo not shown) [Compound 305] | 99.5
CCCCCCCC(CCCCCCC)C(=O)OCCN(CCOC(=O)C(CCCCCCC)CCCCCCC)C(=O)CN [Compound 604] | 99.3
CCCCCCCCCC(CCCCCCCCC)C(=O)OCCN(CCOC(=O)C(CCCCCCCCC)CCCCCCCCC)C(=O)CN [Compound 607] | 99.7
CCCCCC(CCCCC)C(=O)OCCN(CCOC(=O)C(CCCCC)CCCCC)C(=O)C(C)N (stereo not shown) [Compound 608] | 97.7
CCCCCCC(CCCC)C(=O)OCCN(CCOC(=O)C(CCCC)CCCCCC)C(=O)C(C)N (stereo not shown) [Compound 609] | 99.8
CCCCCCCC(CCCCCCC)C(=O)OCCN(CCOC(=O)C(CCCCCCC)CCCCCCC)C(=O)C(C)N (stereo not shown) [Compound 611] | 99.3
CCCCCCCCCCC(CCCC)C(=O)OCCN(CCOC(=O)C(CCCC)CCCCCCCCCC)C(=O)C(C)N (stereo not shown) [Compound 612] | 99.8
CCCCCCCCCC(CCCCCCCCC)C(=O)OCCN(CCOC(=O)C(CCCCCCCCC)CCCCCCCCC)C(=O)C(C)N (stereo not shown) [Compound 614] | 99.7
CCCCCC(CCCCC)C(=O)OCCN(CCOC(=O)C(CCCCC)CCCCC)C(=O)C(N)Cc1ccccc1 (stereo not shown) [Compound 615] | 98.7

The remaining lines, values ahead:

Encapsulation Efficiency % [%] | Compound
99.8 | CCCCCC(CCCCC)C(=O)OCCN(CCOC(=O)C(CCCCC)CCCCC)C(=O)CN [Compound 601]
99.1 | CCCCCCC(CCCC)C(=O)OCCN(CCOC(=O)C(CCCC)CCCCCC)C(=O)CN (stereo not shown) [Compound 602]
98.4 | CCCCCCCCC(CC)C(=O)OCCN(CCOC(=O)C(CC)CCCCCCCC)C(=O)CN (stereo not shown) [Compound 603]
99.9 | CCCCCCCCCCCCC(CC)C(=O)OCCN(CCOC(=O)C(CC)CCCCCCCCCCCC)C(=O)CN (stereo not shown) [Compound 606]
99.7 | CCCCCCCCC(CC)C(=O)OCCN(CCOC(=O)C(CC)CCCCCCCC)C(=O)C(C)N (stereo not shown) [Compound 610]
99.8 | CCCCCCCCCCCCC(CC)C(=O)OCCN(CCOC(=O)C(CC)CCCCCCCCCCCC)C(=O)C(C)N (stereo not shown) [Compound 613]

Same assay, conditions: Table 5; LNP 60:0:38.5:1.5 mol %; hEPO mRNA; N:P 6

Encapsulation Efficiency % [%] | Compound
99.5 | CCCCCCCCC(CCCCCC)C(=O)OCCN(CCOC(=O)C(CCCCCC)CCCCCCCC)C(=O)CNCCO (stereo not shown) [Compound 305]
98 | CCCCCCCC(CCCCCCC)C(=O)OCCN(CCOC(=O)C(CCCCCCC)CCCCCCC)C(=O)CN [Compound 604]
98.4 | CCCCCCCC(CCCCCCC)C(=O)OCCN(CCOC(=O)C(CCCCCCC)CCCCCCC)C(=O)C(C)N (stereo not shown) [Compound 611]
